Entries after “also recorded” stand apart in the source; their conditions may differ.
Key:
[1] = Photophysical property of the fluorophore ASM; format: physicochemical
Source text: Design, preparation, and characterization of the NIR-ASM fluorescent probe. Imaging agents emitting near-infrared fluorescence enable deeper penetration with low phototoxicity and high signal-to-background ratios due to minimal tissue auto-fluorescence, which is a prime requirement for in vivo imaging studies.^40,41 Accordingly, the inventors designed an NQO1 activatable near-infrared fluorescent probe (NIR-ASM) by attaching a trimethyl-lock QPA with (E)-2-(3-(4-aminostyryl)-5,5-dimethylcyclohex-2-en-1-ylidene)malononitrile (ASM) for molecular imaging of cancer cells in vivo (FIG. 9A). The fluorophore ASM was used in this study because of its strong NIR fluorescence signal with substantial Stokes shift (˜190 nm), to eliminate background interferences by avoiding reabsorption of emitted photons. […] NQO1 is a ubiquitous cytosolic two-electron reductase that catalyzes the reduction of quinone substrates in the presence of NADH. Upon interaction with NQO1 in the presence of NADH, QPA present in non-fluorescent NIR-ASM undergoes two-electron reduction to form an o-hydroxydihydrocinnamic acid derivative that undergoes rapid lactonization under physiological conditions to yield dihydrocoumarin, 6-hydroxy-4,4,5,7,8-pentamethylchroman-2-one (HPC) along with highly fluorescent ASM. […]

NQO1 [2] = target: T1, NQO1 (Homo sapiens, UniProt P15559); experiment: Effect of NQO1 inhibitor ES936 on NQO1 activation of NIR-ASM; format: biochemical; parameters: purchased Sigma-Aldrich D1515; conditions: ES936 0-100 nM, NQO1 pretreated
T1 sequence (P15559 whole entry): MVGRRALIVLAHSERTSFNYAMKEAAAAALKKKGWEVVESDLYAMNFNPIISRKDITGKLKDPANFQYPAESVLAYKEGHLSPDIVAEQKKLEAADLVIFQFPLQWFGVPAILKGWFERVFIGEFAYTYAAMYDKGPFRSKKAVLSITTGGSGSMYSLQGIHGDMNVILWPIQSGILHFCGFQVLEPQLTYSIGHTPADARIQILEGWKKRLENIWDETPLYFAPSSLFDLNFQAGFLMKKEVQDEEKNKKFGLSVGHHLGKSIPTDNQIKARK
Description: Selectivity of NIR-ASM. The selectivity of NIR-ASM probe was studied by examining its reactivity towards various biomolecules and antioxidant enzymes such as the glutathione, aldehyde dehydrogenase 1, gamma-glutamyl transferase, glutathione peroxidase, apurinic/apyrimidinic endonuclease, cystathionine-β-synthase, cathepsin L, glutathione S-transferase, NADH alone and the combination of nitroreductase and NQO1.
NQO1 inhibitor efficiency evaluation. NQO1 inhibitor efficiency was evaluated using specific NQO1 inhibitor ES936 under in vitro conditions. 2.5 μg/mL of NQO1 was incubated with different concentrations of ES936 (0-100 nM) in the presence of 100 μM NADH at 37° C. Fluorescence emission was recorded after 30 min of incubation (λex. 460 nm).

NQO1 [3] = target: T1, NQO1; experiment: Inhibitory effect of ES936 on hNQO1 activation of NQ-DCP; format: biochemical; conditions: ES936 0-100 nM, enzyme pre-treated, 30 min
Description: Selectivity of NQ-DCP Towards hNQO1. The specificity of NQ-DCP probe towards hNQO1 was studied by determining its reactivity towards various biomolecules such as the glutathione (GSH, 1 mM), aldehyde dehydrogenase 1 (ALDH1A1, 2.5 μg/mL), gamma-glutamyl transferase (GGT, 10 U), glutathione Peroxidase (GPx, 10 U), apurinic/apyrimidinic endonuclease (APE1, 10 U), cystathionine-β-synthase (CBS, 2 μg/mL), cathepsin L (CTSL, 2 μg/mL), glutathione S-transferase (GST-pi, 2 μg/mL), nitroreductase (NTR, 2 μg/mL) and NADH (100 μM) alone or the combination of and NQO1 (2.5 μg/mL). […] To gain more insight into the specificity of the probe towards hNQO1, the enzyme was pre-treated with ES936 (0-100 nM), a well-known hNQO1 inhibitor [39] and then incubated with NQ-DCP.
Evaluation of Inhibitor Efficiency. To evaluate the inhibitory efficiency of ES936 towards hNQO1 under in vitro conditions, different concentrations of ES936 (0-100 nM) incubated with 2.0 μg/mL of NQO1, 100 μM NADPH in PBS with 0.1% BSA (pH 7.4) at 37° C. Fluorescence emission was recorded after 30 min of incubation (λex=420 nm).

hNQO1 in T98G cells = experiment: ES936 pretreatment of cells before NQ-DCP, fluorescence microscopy; format: cell-based, human; conditions: 100 nM ES936 for 6 h, then 10 μM NQ-DCP
Description: Evaluation of Specificity in Cancer Cells. To show the substrate selectivity of NQ-DCP for hNQO1, T98G cells were pretreated with 100 nM of NQO1 inhibitor ES936 for 6 h and incubated 10 μM of NQ-DCP.
Cell Culture, Fluorescence Imaging, and Flow Cytometry Analysis. Brain tumor cells and astrocytes were grown in Dulbecco's modified Eagle's (DMEM) medium containing 10% Fetal Bovine Serum and 1% penicillin/streptomycin in a humidified atmosphere of 5% CO2 at 37° C. For fluorescence imaging, initially, cells were seeded into 6-well plate and cultured overnight in respective media at 37° C. Media was replaced with fresh medium containing 10 μM NQ-DCP and incubated at 37° C. for 60 min and then the medium was replaced with PBS and live cells were imaged using a fluorescence microscope. For inhibitor study, cells were pretreated with NQO1 inhibitor ES936 (100 nM) for 6 h before adding the NQ-DCP. For determining endogenous hNQO1 activity in cancer cells using flow cytometry, about 10×10^4 cells were incubated with 10 μM of NQ-DCP for 60 min and were analyzed using flow cytometry.

[4] = tested on: NQO1 in A549 and H460 cells; experiment: ES936 pretreatment of cells before NIR-ASM (microscopy and flow cytometry); format: cell-based, human
Description: Chemical and genetic approaches confirm the specificity of NIR-ASM for NQO1 in live tumor cells. A fluorescence probe with high sensitivity, simple operation, and excellent specificity will be an asset for the detection of NQO1 in situ. To assess the substrate selectivity of NIR-ASM for NQO1, both A549 and H460 cells were pretreated with 100 nM of NQO1 inhibitor ES936 for 6 h, before incubating with 10 μM NIR-ASM. […] The effect of ES936 on endogenous NQO1 activity and subsequent reactivity with NIR-ASM was also determined by flow cytometry. […] The presence of NQO1 protein in the transfected MDA-MB-231 cells and its absence in the untransfected control was confirmed by immunoblotting (FIG. 13E). Subsequently, the NQO1-negative and positive MDA-MB-231 cell lines were incubated with NIR-ASM and analyzed by fluorescence microscopy and flow cytometry for activation of the probe.
Fluorescence imaging. Both cancer and normal cells were seeded into 6-well plates and cultured overnight in respective media at 37° C. […] Finally, the medium was replaced with PBS and the live cells were imaged using a multiphoton confocal fluorescence microscope (λex/em=488/644 nm). […]
Flow cytometry analysis. The endogenous NQO1 activity of cancer cells and normal cells was determined by flow cytometry after NIR-ASM exposure. […] About 1×10^4 cells were analyzed by flow cytometry (λex=488 nm).

Row | SMILES | Stokes shift [1] [nm] | effect on the fluorescence response of NIR-ASM to NQO1 (NQO1 [2]) | effect on the fluorescence response of NQ-DCP to hNQO1 (NQO1 [3]) | effect on NQ-DCP fluorescence in cells (hNQO1 in T98G cells) | effect on NIR-ASM fluorescence in cells (microscopy) ([4]; 100 nM ES936 for 6 h, then 10 μM NIR-ASM) | effect on NIR-ASM induced fluorescence intensity (flow cytometry) ([4]; 100 nM ES936 pretreated tumor cells)
1 | CC1(C)CC(/C=C/c2ccc(N)cc2)=CC(=C(C#N)C#N)C1 [ASM, (E)-2-(3-(4-aminostyryl)-5,5-dimethylcyclohex-2-en-1-ylidene) malononitrile] | ~190 |  |  |  |  | 
2 | COC1=CC(=O)c2c(c(COc3ccc([N+](=O)[O-])cc3)c(C)n2C)C1=O [ES936] |  | effectively suppressed the fluorescence response in a concentration-dependent fashion | effectively suppressed the fluorescence response in a concentration-dependent manner; also recorded: completely blocked the NQ-DCP fluorescence | completely blocked the NQ-DCP fluorescence | completely blocked the NIR-ASM fluorescence | significantly decreased

From patent US11957766B2, “HNQO1-activatable fluorescent probe for imaging cancer cells in-vitro and in-vivo” (Texas Tech University System, priority 2019, dated 2024)
